Source: patent US8987502B2, “Oleanolic acid amidate derivatives, preparation methods and uses thereof” (Hangzhou Bensheng Pharmaceutical Co., Ltd., priority 2011, dated 2015)
Converted amounts (≈) assume the structure as drawn.

Legend:
K562/adr = assay: MTT leukemia cell proliferation inhibition, K562/adr; format: cell-based; settings: Homo sapiens, 72 h
Excerpt: (§1) Leukemia cell lines: leukemia cell lines: K562/adr (drug-resistant, chronic myeloid leukemia, CML), NB4 (acute promyelocytic leukemia, AML), Kasumi-1 (acute myeloid leukemia M2 type, AML-M2), Jurkat (acute lymphoblastic leukemia, ALL), all of which are donated by Cancer Research Institute of Zhejiang University, China; and H9 (acute lymphoblastic leukemia, ALL), which is purchased from China Center for Type Culture Collection (CCTCC).
(§2) Reagents: The standard sample of oleanolic acid (OA) is purchased from Hua Kang Pharmaceutical Raw Material Factory, Shifang City, Sichuan, China; and the amidated oleanolic acid derivatives are prepared according to the present invention.
(§3) Obtaining 6000 well-growing leukemia cells and inoculating them into wells of a 96-well cell culture plate. The culture medium is the 1640 cell culture medium containing 10% fetal bovine serum. After adding the amidated oleanolic acid derivatives of different concentrations and mixing uniformly, placing the plate in a carbon dioxide cell incubator (5% CO2) at 37° C. and incubated for 72 hours. Then the relative number of viable cells is determined by the MTT method. In this experiment, the cell proliferation inhibition rate in control group (not treated with any compound) is set as 0%.

NB4 = assay: MTT leukemia cell proliferation inhibition, NB4; format: cell-based; settings: Homo sapiens, NB-4
Excerpt: as §1, §2, §3

Kasumi-1 = assay: MTT leukemia cell proliferation inhibition, Kasumi-1; format: cell-based; settings: Homo sapiens
Excerpt: as §1, §2, §3

H9 = assay: MTT leukemia cell proliferation inhibition, H9; format: cell-based, human
Excerpt: as §1, §2, §3

Jurkat = assay: MTT leukemia cell proliferation inhibition, Jurkat; format: cell-based; settings: Homo sapiens, 72 h
Excerpt: as §1, §2, §3

RPMI8226 = assay: MTT multiple myeloma cell proliferation inhibition, RPMI8226; format: cell-based; settings: Homo sapiens, RPMI-8226
Experimental: Multiple myeloma cell lines: RPMI8226 (multiple myeloma), purchased from Fuxiang Bio-tech Co. Ltd., Shanghai, China.
as §3

A549 = assay: MTT solid tumor cell proliferation inhibition, A549; format: cell-based, human; settings: Homo sapiens
Experimental: (§4) Human solid tumor cell lines: Hep-2 (laryngeal carcinoma), A549 (human lung cancer), CaES-17 (esophageal cancer cell), PC-3 (prostate cancer), CNE (nasopharyngeal carcinoma cell), and SK-OV-3 (ovarian cancer cell), all of which are purchased from China Center For Type Culture Collection; RKO (human colon adenocarcinoma cell), MGC 803 (human gastric cancer cell), MG63 (osteosarcoma) and U87 MG (malignant glioma cell), all of which are purchased from Fuxiang Bio-tech Co. Ltd., Shanghai, China; PANC-1 (pancreatic cancer), Hep G2 (human liver cancer cell), Becap37 (human breast cancer cell), and Hela (human cervical cancer cell), all of which are donated by Cancer Research Institute of Zhejiang University, China.
(§5) Obtaining 4000 well-growing human solid tumor cells and inoculating them into wells of a 96-well cell culture plate. The culture medium is DMEM High Glucose cell culture medium containing 10% fetal bovine serum. The plate is placed in a carbon dioxide cell incubator (5% CO2) at 37° C. for 24 hours for incubation. After being added with the amidated oleanolic acid derivatives of different concentrations and mixed uniformly, the plate is placed in a carbon dioxide cell incubator (5% CO2) at 37° C. for 72 hours for incubation. Then the relative number of the living cells is determined by the MTT method. In this experiment, the cell proliferation inhibition rate in control group (not treated with any compound) is set as 0%.

PANC-1 = assay: MTT solid tumor cell proliferation inhibition, PANC-1; format: cell-based, human; settings: Homo sapiens
Experimental: as §4, §5

Becap37 = assay: MTT solid tumor cell proliferation inhibition, Becap37; format: cell-based; settings: Homo sapiens
Experimental: as §4, §5

MG 63 = assay: MTT solid tumor cell proliferation inhibition, MG 63; format: cell-based, human
Experimental: as §4, §5

Hep G2 = assay: MTT solid tumor cell proliferation inhibition, Hep G2; format: cell-based; settings: Homo sapiens, HepG2
Experimental: as §4, §5

RKO = assay: MTT solid tumor cell proliferation inhibition, RKO; format: cell-based; settings: Homo sapiens, 72 h
Experimental: as §4, §5

U87 MG = assay: MTT solid tumor cell proliferation inhibition, U87 MG; format: cell-based, human; settings: Homo sapiens, U-87 MG, U87 MG, 72 h
Experimental: as §4, §5

Hela = assay: MTT solid tumor cell proliferation inhibition, Hela; format: cell-based, human; settings: Homo sapiens, Hela, 72 h
Experimental: as §4, §5

CaES-17 = assay: MTT solid tumor cell proliferation inhibition, CaES-17; format: cell-based, human; settings: Homo sapiens, CaEs17
Experimental: as §4, §5

CNE = assay: MTT solid tumor cell proliferation inhibition, CNE; format: cell-based, human; settings: Homo sapiens, CNE, 72 h
Experimental: as §4, §5

Hep-2 = assay: MTT solid tumor cell proliferation inhibition, Hep-2; format: cell-based, human; settings: Homo sapiens
Experimental: as §4, §5

MGC803 = assay: MTT solid tumor cell proliferation inhibition, MGC803; format: cell-based, human; settings: Homo sapiens, MGC-803
Experimental: as §4, §5

PC-3 = assay: MTT solid tumor cell proliferation inhibition, PC-3; format: cell-based, human
Experimental: as §4, §5

SK-OV-3 = assay: MTT solid tumor cell proliferation inhibition, SK-OV-3; format: cell-based, human; settings: Homo sapiens
Experimental: as §4, §5

[1] = 16 μg/mL compound, read-out: IR (inhibition rate)

- IC50 (K562/adr; MTT): 2.4 µg/mL (≈ 4.84 µM)
- IC50 (NB4; NB4, 72 h, MTT): 6.51 µg/mL (≈ 13.1 µM)
- IC50 (Kasumi-1; Kasumi-1, 72 h, MTT): > 16 µg/mL
- IC50 (H9; Homo sapiens, H9, 72 h, MTT): 6.3 µg/mL (≈ 12.7 µM)
- IC50 (Jurkat; MTT): 14.3 µg/mL (≈ 28.9 µM)
- IC50 (RPMI8226; RPMI8226, 72 h, MTT): 3.51 µg/mL (≈ 7.08 µM)
- IC50 (A549; A549, 72 h, MTT): > 16 µg/mL
- IC50 (PANC-1; PANC-1, 72 h, MTT): > 16 µg/mL
- IC50 (Becap37; Becap37, 72 h, MTT): > 16 µg/mL
- IC50 (MG 63; Homo sapiens, MG 63, 72 h, MTT): 13.2 µg/mL (≈ 26.5 µM)
- IC50 (Hep G2; Hep G2, 72 h, MTT): > 16 µg/mL
- IC50 (RKO; MTT): > 16 µg/mL
- IC50 (U87 MG; MTT): > 16 µg/mL
- IC50 (Hela; MTT): 11.9 µg/mL (≈ 24 µM)
- IC50 (CaES-17; CaES-17, 72 h, MTT): 18.9 µg/mL (≈ 38.1 µM)
- IC50 (CNE; MTT): > 16 µg/mL
- IC50 (Hep-2; Hep-2, 72 h, MTT): > 16 µg/mL
- IC50 (MGC803; MGC803, 72 h, MTT): 14.4 µg/mL (≈ 29 µM)
- IC50 (PC-3; Homo sapiens, PC-3, 72 h, MTT): 13.1 µg/mL (≈ 26.3 µM)
- IC50 (SK-OV-3; SK-OV-3, 72 h, MTT): 7.63 µg/mL (≈ 15.4 µM)
SMILES: CC1(C)CC[C@]2(NC(=O)C3CC3)CC[C@]3(C)C(=CC[C@@H]4[C@@]5(C)CC[C@H](O)C(C)(C)[C@@H]5CC[C@]43C)[C@@H]2C1 [BS-OA-097]
- inhibition at 16 µg/mL (K562/adr; [1]): 91.3%
- inhibition at 16 µg/mL (NB4; NB4, 16 μg/mL compound, 72 h, read-out: IR (inhibition rate)): 93.4%
- inhibition at 16 µg/mL (Kasumi-1; Kasumi-1, 16 μg/mL compound, 72 h, read-out: IR (inhibition rate)): 42.9%
- improvement of cell inhibition rate as compared with oleanolic acid (H9; H9 cells): ~4 fold
- inhibition at 16 µg/mL (H9; Homo sapiens, H9, 16 μg/mL compound, 72 h, read-out: IR (inhibition rate)): 85.3%
- inhibition at 16 µg/mL (Jurkat; [1]): 56.6%
- inhibition at 16 µg/mL (RPMI8226; RPMI8226, 16 μg/mL compound, 72 h, read-out: IR (inhibition rate)): 95.3%
- inhibition at 16 µg/mL (A549; A549, 16 μg/mL compound, 72 h, read-out: IR (inhibition rate)): 38.1%
- inhibition at 16 µg/mL (PANC-1; PANC-1, 16 μg/mL compound, 72 h, read-out: IR (inhibition rate)): 38.8%
- inhibition at 16 µg/mL (Becap37; Becap37, 16 μg/mL compound, 72 h, read-out: IR (inhibition rate)): 41.3%
- IR (inhibition rate) (MG 63; MG 63, 16 μg/mL compound, 72 h): 78.6%
- inhibition at 16 µg/mL (Hep G2; Hep G2, 16 μg/mL compound, 72 h, read-out: IR (inhibition rate)): 35.1%
- inhibition at 16 µg/mL (RKO; [1]): 29%
- inhibition at 16 µg/mL (U87 MG; [1]): 37.4%
- inhibition at 16 µg/mL (Hela; [1]): 64.4%
- inhibition at 16 µg/mL (CaES-17; CaES-17, 16 μg/mL compound, 72 h, read-out: IR (inhibition rate)): 45.7%
- inhibition at 16 µg/mL (CNE; [1]): 40%
- inhibition at 16 µg/mL (Hep-2; Hep-2, 16 μg/mL compound, 72 h, read-out: IR (inhibition rate)): 28.5%
- inhibition at 16 µg/mL (MGC803; MGC803, 16 μg/mL compound, 72 h, read-out: IR (inhibition rate)): 56.1%
- inhibition at 16 µg/mL (PC-3; Homo sapiens, PC-3, 16 μg/mL compound, 72 h, read-out: IR (inhibition rate)): 56.6%
- improvement of cell inhibition rate as compared with oleanolic acid (PC-3; PC-3 cells): ~2 fold
- inhibition at 16 µg/mL (SK-OV-3; SK-OV-3, 16 μg/mL compound, 72 h, read-out: IR (inhibition rate)): 68.9%
